Assay [1] has as its system GLUT4 at the plasma membrane of 3T3-L1 cells. Description: FACS-based assay of the proportion of GLUT4 reporter at the cell surface, 3T3-L1 cells. On the set-up: species or system murine. The method, then:
(§1) Confluent cells were reseeded on the indicated day of differentiation to six well plates (Coming, Costar #3506) one day before use in experiments, and were starved in DMEM without fetal bovine serum for at least 3 hours before insulin stimulation. Insulin was generally used at 160 nM; occasionally it was used at 80 nM or 200 nM and no difference was noted between these concentrations in either 3T3-L1 or CHO cells. Insulin was added directly to the wells from a 100×stock. After treatment in the presence or absence of insulin for the times indicated in each figure, cells were quickly transferred to […] and washed with cold phosphate buffered saline (PBS) containing 0.9 mM Ca^++ and 0.5 mM Mg^++ (PBS++). All subsequent steps were carried out at 4° C., and staining of externalized myc epitope was done on adherent cells. Cells were incubated with a 1:200 dilution of anti-myc (9E10) ascites or using 25 μg/ml purified 9E10 in PBS++, 2% bovine serum albumin (BSA), 4% donkey serum for 1.5 hours. Cells were then washed twice in PBS++, for 5 minutes each time. They were then incubated 45 minutes in 12.5 to 25 μg/ml R-phycoerythrin conjugated donkey F(ab′)2 anti-mouse IgG secondary antibody, diluted in PBS++, 2% BSA, 4% donkey serum. Cells were rinsed twice in PBS++, then washed three times in PBS++ for 10 minutes each time, and were resuspended by gentle scraping in PBS++, 2% BSA or PBS++, 5% fetal bovine serum for flow cytometry. For experiments involving insulin removal, cells were chilled as above after insulin stimulation, then washed twice with 5 mM sodium acetate, 150 mM NaCl, pH 4.0 (Kao, A. W., et al., 1998, J Biol Chem 273:25450-7; Yang., J., et al., 1992, J Biol Chem 267:10393-9). Cells were rewarmed in 37° C. DMEM for the times indicated, restimulated or not with insulin, and then returned to 4° C. and chilled with cold PBS++ before staining as above.
(§2) Flow cytometry was done on FACScan or FACSCalibur cytometers (Becton-Dickinson). Appropriate compensation between the FL1 and FL2 channels was set using uninfected (GFP-negative) cells or cells stained with PE only (e.g. using a PE-conjugated anti-transferrin receptor antibody; Pharmingen). […] For each sample, data from ≧10,000 cells were collected. Median fluorescence intensities were used for quantification, since this measure of central tendency is least sensitive to outliers. For each sample, the PE and GFP fluorescence specifically attributable to the presence of the GLUT4 reporter were determined by subtracting background fluorescences, measured using control unstained cells and cells not expressing the reporter, respectively. These control cells were treated with the same conditions (e.g., type of serum and media, amino acid concentrations) used for the experimental cells. The ratio of fluorescence intensities plotted on the vertical axes of many figures is a relative, not absolute, measure of the proportion of GLUT4 at the cell surface. The scales are numbered arbitrarily and are not intended to permit comparison in absolute terms of data obtained in different experiments. In some of the kinetic studies (FIG. 26), the data were subjected to a simple smoothing operation. This consisted of calculating (0.25ra1—0.5rc+0.25rc+1), where r is the ratio of specific fluorescences for timepoint t. This calculated value was used for timepoints t=2 to ten−1, where n is the total number of timepoints. For the last time point t=n, (0.33rc1+0.67r1) was calculated. Basal values of r (r1) were unchanged.
To assay changes in the proportion of GLUT4 present at the plasma membrane, a cDNA encoding a GLUT4 reporter protein was constructed. This protein contains seven c-myc epitope tags in the first exofacial loop of GLUT4, and GFP fused in-frame at the carboxy terminus. […] An anti-myc monoclonal antibody, followed by a phencoerythrin (PE)-conjugated secondary antibody, was used to detect reporter protein present at the surface of living cells. […]

Assay [2] concerns GLUT4 at the plasma membrane of CHO cells. The experiment in a line: FACS-based assay of the proportion of GLUT4 reporter at the cell surface, CHO cells. The arrangement: species or system Chinese Hamster. The protocol:
as §1, §2
To measure GLUT4 trafficking at the surface of CHO cells, CHO cells expressing the murine ecotropic retroviral receptor were infected with a retrovirus carrying the GLUT4 reporter, and FACS was utilized to isolate cells falling within a narrow range of GFP fluorescence intensities. Upon insulin stimulation of these cells, externalization of the GLUT4 reporter was again noted, as detected by flow cytometry. […]

For assay [3], the system named is GLUT4 at the cell surface of NIH 3T3 cells. Description: FACS-based assay of the proportion of GLUT4 reporter at the cell surface, NIH 3T3 cells. The note with it: NIH 3T3 cells expressing the GLUT4 reporter. The protocol:
Confluent cells were reseeded on the indicated day of differentiation to six well plates (Coming, Costar #3506) one day before use in experiments, and were starved in DMEM without fetal bovine serum for at least 3 hours before insulin stimulation. Insulin was generally used at 160 nM; occasionally it was used at 80 nM or 200 nM and no difference was noted between these concentrations in either 3T3-L1 or CHO cells. Insulin was added directly to the wells from a 100×stock. […]
Flow cytometry was done on FACScan or FACSCalibur cytometers (Becton-Dickinson). […] Median fluorescence intensities were used for quantification, since this measure of central tendency is least sensitive to outliers. For each sample, the PE and GFP fluorescence specifically attributable to the presence of the GLUT4 reporter were determined by subtracting background fluorescences, measured using control unstained cells and cells not expressing the reporter, respectively. […] The ratio of fluorescence intensities plotted on the vertical axes of many figures is a relative, not absolute, measure of the proportion of GLUT4 at the cell surface. […] This consisted of calculating (0.25ra1—0.5rc+0.25rc+1), where r is the ratio of specific fluorescences for timepoint t. This calculated value was used for timepoints t=2 to ten−1, where n is the total number of timepoints. For the last time point t=n, (0.33rc1+0.67r1) was calculated. […]

Assay [4] relates to GLUT4 in the plasma membrane fraction of 3T3-L1 cells. Description: Subcellular fractionation and immunoblotting of GLUT4 in plasma membrane fraction, 3T3-L1 cells. In kind it is cell-based, murine. An excerpt:
Four 10 cm plates of 3T3-L1 adipocytes were used per condition to isolate low density microsomal and plasma membrane fractions for FIG. 17B. Eight and ten plates per condition were used to isolate low density microsomes for analysis by sucrose density gradient centrifugation (FIG. 17C) and in vesicle immunopurification experiments (FIG. 17D), respectively. Five plates of adipocytes and ten plates of preadipocytes were used per condition in experiments presented in FIGS. 19B and 20B, respectively. For experiments presented in FIGS. 17B and 17D cells were serum starved overnight, treated with the presence or absence of insulin (160 nM, 10 min.), then transferred to 4° C. and washed with cold PBS++. For the vesicle immunopurification (FIG. 17D) cells were starved overnight, then transferred to 4° C. and washed with cold PBS++ without insulin stimulation. For kinetic studies (FIGS. 19B), 480 nM insulin was used (added from a prewarmed 3×stock) in order to maximally and simultaneously stimulate all of the cells on each 10 cm dish. Cell were transferred to 4° C. and washed with cold PBS++ at the indicated times. In all cases, cells were next washed once with cold 250 mM sucrose, 10 mM Tris pH 7.4, 0.5 mM EDTA (Buffer A). Cells were resuspended by scraping in cold Buffer A with Complete protease inhibitors (Roche), then homogenized using 16 strokes (4 plates) or 25 strokes (8 plates) in a Dounce-type teflon tissue grinder (Kontes #22, VWR). All subsequent steps were performed at 4° C. […]
The supernatant from the initial centrifugation was recentrifuged at 19,000 rpm in an SS-34 rotor (43,000×g) for 30 minutes. […] Equal volumes of each fraction were analyzed by SDS-PAGE and immunoblotting, and the total protein content in each fraction was determined using the micro-BCA kit (Pierce). In experiments where LDM and PM fractions were analyzed directly (without sedimentation of the LDM), total protein content was first determined and then equal amounts of protein were analyzed by SDS-PAGE and immunoblotting.

The test system of assay [5] is GLUT4 reporter in AML12 hepatocyte cell line. The experiment in a line: GLUT4 reporter translocation in AML12 hepatocyte cell line. Type of assay: cell-based. Conditions: AML12 cells; data not shown.
The subject of assay [6] is GLUT4 at the cell surface of adipocytes. The note with it: <10% in the absence of insulin; cited from earlier work.
Where [7] appears, read: 3T3-L1 preadipocytes and adipocytes.
[8] abbreviates: all days of 3T3-L1 differentiation, 80 nM insulin.

Regarding insulin, the “subsequent decrease to steady-state, of peak response” value in assay [1] (3T3-L1 adipocytes, FIG. 19A) is recorded as approximately 20%. Moreover, the “peak response over basal” value in assay [1] (3T3-L1 adipocytes, average of Day 8 and 10, FIG. 19A) is listed as 5.4 fold. In addition, in assay [1] (setting [7]), the “time at which steady-state level of cell surface GLUT4 is reached” value is on record as “about 15 minute” and the “time of peak plasma membrane GLUT4 after insulin addition” value is “about 5 minute”. Also, the “increase in plasma membrane GLUT4” value in assay [1] (3T3-L1 preadipocytes and adipocytes, peak after insulin addition) was “about 5 fold”. Further, in assay [1] (3T3-L1 preadipocytes, 5 minutes after insulin addition), the “increase in cell-surface GLUT4” value is reported as “fourfold”. For the same compound, in assay [1] (setting [8]), the “fall of the fraction of GLUT4 on the plasma membrane after the peak” value is recorded as 20% to 40, the “time of greatest proportion of GLUT4 on the plasma membrane after insulin addition” value is “four to five” and the “time to steady-state after insulin addition” value fell in the range of 15 to 20 min. Besides, the “increase in the fraction of GLUT4 present at the plasma membrane” value in assay [1] (confluent 3T3-L1 preadipocytes cultured in 10% calf serum or 10% fetal bovine serum, 5 minutes) is on record as “four-fold”. Further, in assay [2] (CHO cells), the “time at which steady-state level of cell surface GLUT4 is reached” value was “about 15 minute” and the “time of peak plasma membrane GLUT4 after insulin addition” value is “about 5 minute”. In assay [2] (CHO cells cultured in DMEM), the “peak fraction of GLUT4 at the cell surface relative to unstimulated cells” value is reported as 5.5 fold, the “time of peak GLUT4 externalization after insulin addition” value is recorded as “four to five” and the “time to steady-state after insulin addition” value is listed as “twenty”. Moreover, the “part of the increase eliminated in the subsequent decrease” value in assay [2] (CHO cells cultured in DMEM, several experiments) is on record as 50% to 60. The “overshoot of the final, steady-state proportion of GLUT4 at the cell surface” value in assay [2] (CHO cells cultured in F12 medium) is “no overshoot”. The “increase in plasma membrane GLUT4” value in assay [2] (CHO cells, peak after insulin addition) is “about 5 fold”. Also, in assay [2] (confluent CHO cells expressing the GLUT4 reporter, FIG. 17F), the “shift of the population upward along the PE (myc) axis” value is approximately 5 fold. In assay [3], the “increase in the proportion of GLUT4 at the cell surface” value is “twofold”. Further, the “increases in the plasma membrane fraction (insulin/basal)” value in assay [4] (3T3-L1 adipocytes, native GLUT4 and reporter protein, insulin 160 nM, 10 min, densitometry of several experiments) is reported as 5- to 10 fold. In assay [4] (3T3-L1 preadipocytes expressing the GLUT4 reporter), the “time of peak response of GLUT4 reporter in the PM fraction after insulin addition” value was 8 min. Further, in assay [4] (endogenous GLUT4, uninfected 3T3-L1 adipocytes, 480 nM insulin), the “time of peak GLUT4 in the PM fraction after insulin addition” value was 7 min. Further, in assay [5], the “insulin-stimulated translocation of the GLUT4 reporter” value is on record as “minimal translocation” and the “overshoot of the steady-state response” value is recorded as “no overshoot”. Besides, the “proportion of GLUT4 at the cell surface in the presence of insulin” value in assay [6] was 35-50%.
Regarding `CO[C@H]1C[C@@H]2CC[C@@H](C)[C@@](O)(O2)C(=O)C(=O)N2CCCC[C@H]2C(=O)O[C@H]([C@H](C)C[C@@H]2CC[C@@H](O)[C@H](OC)C2)CC(=O)[C@H](C)/C=C(\C)[C@@H](O)[C@@H](OC)C(=O)[C@H](C)C[C@H](C)/C=C/C=C/C=C/1C` [rapamycin, reference compound], the “decrease in amount of GLUT4 reporter per cell (GFP fluorescence)” value in assay [1] (3T3-L1 adipocytes, after rapamycin treatment, data not shown) is on record as not above 10%. Moreover, in assay [2] (CHO cells, after rapamycin treatment, data not shown), the “change in amount of GLUT4 reporter protein (GFP fluorescence)” value was not above 10%.
